Where two headings read alike, the source gives them in different places.
Assays:
[1] = biological target: T1, hSERT Ile425Val (I425V) (Homo sapiens, UniProt P31645, I425V); assay: [3H]5-HT transport (SERT uptake) assay in transfected HeLa cells; assay type: cell-based
T1 construct: The full-length cDNA encoding hSERT in the mammalian expression vector pcDNA3.1; expressed in transfected cells; host or cells: HeLa
Experimental: (§1) Transfection and Transport Studies. HeLa cells, maintained at 37° C. in a 5% CO2 humidified incubator, were grown in complete medium (Dulbecco's Modified Eagle's Medium (DMEM, Invitrogen), 10% fetal bovine serum, 2 mM L-glutamine, 100 units/ml penicillin, and 100 μg/ml streptomycin).
(§2) Transport, Binding, Biotinylation and Phosphorylation Studies. […] To establish levels and biosynthetic progression of hSERT protein produced from mutant cDNAs, HeLa cells were plated in 6-well dishes at 500,000 cells per well and transfected 12 h later. Twenty four hours after transfection, whole cell detergent extracts were blotted for hSERT (mAb Technologies, Inc., 1:1000) using enhanced chemiluminescence (ECL, Amersham) detection.

[2] = biological target: T2, hSERT (Homo sapiens, UniProt P31645); assay: as above; assay type: cell-based
T2 construct: The full-length cDNA encoding hSERT in the mammalian expression vector pcDNA3.1; expressed in transfected cells; host or cells: HeLa
Experimental: as §1, §2

[3] = system: rat SERT expressed by RBL-2H3 cells; assay: [3H]5-HT transport assay in RBL-2H3 cells; assay type: cell-based; conditions: for blockade of NECA-induced 5-HT uptake: ODQ 10 μm, NECA 1 μm
[4] = biological target: T3, native SERT in RN46A cells (Rattus norvegicus, UniProt P31652); assay: [3H]5-HT transport assay in RN46A cells; assay type: cell-based; conditions: RN46A; for blockade of anisomycin-stimulated 5-HT uptake: SB203580, ODQ 10 μm, H8 0.1 μm, DT-2 1.0 μm
T3 construct: derived from rat E13 raphenucleus, that expresses native SERT; endogenous in cells; host or cells: RN46A cells

[5] = biological target: hSERT Pro339Leu (P339L) (Homo sapiens, UniProt P31645, P339L)
Experimental: as §1, §2

[6] = biological target: T2, hSERT; assay: [125I]RTI-55 binding to intact transfected HeLa cells (surface and total SERT); assay type: cell-based; conditions: paroxetine as displacer; data not shown
[7] = system: five hSERT variants that failed to elicit uptake increases; assay: [125I]RTI-55 surface binding to intact transfected HeLa cells, non-responsive variants; assay type: cell-based, human; conditions: H8
[8] = system: lymphocytes homozygous for the Gly variant (hSERT Gly56); assay: 5-HT uptake in genotyped lymphocyte lines; assay type: cell-based, human; conditions: H8 versus 8BrcGMP; SB203580 versus anisomycin
From the text: Genotyping and Lymphocyte Studies. Lymphocyte lines were derived from autistic pedigrees recruited by Susan E. Folstein (Johns Hopkins Univ), from the Autism Genetics Resource Exchange (AGRE) collection (www.agre.org/), and from the NIMH Human Genetics Initiative Repository (www.nimhgenetics.org/) at Rutgers University. DNA from lymphoblastoid cell lines was genotyped via TaqMan-based allelic discrimination, using an Applied Biosystems (Foster City, Calif.) Assay-by-Design and independently confirmed by PCR and direct sequence analysis. […] Lymphocyte were pelleted at 1500 rpm, 5 min and washed with KRH assay buffer. A total of 1×10^6 cells in triplicate were pre-warmed (37° C.) in a shaking water bath (10 min) in 12×75 polypropylene tubes in KRH buffer containing 100 μM pargyline and 100 μM ascorbic acid+/−modifiers.

[9] = system: rat SERT expressed by RBL-2H3 cells; conditions: Zhu et al., 2004a,b; cited from earlier work
[10] = system: p38 MAPK; assay type: cell-based, rat
Experimental: Assays of p38 MAPK Activation. […] Medium was removed by aspiration, and cells were washed once with KRH buffer and then incubated in triplicate at 37° C. in KRH buffer with or without p38 MAPK activators for 5-10 min. Assay buffer was removed, and cells were immediately fixed with fresh 4% formaldehyde (Sigma) in PBS for 20 min at room temperature and washed four times with 1×PBS containing 0.1% Triton X-100 (Sigma) (5 min per wash) prior to 1 h of blocking with Odyssey blocking buffer (Li-Cor Biosciences, Lincoln, Nebr.). RBL-2H3 cells were subsequently probed with dual phosphorylated (Thr(P) and Tyr(P)) p38 MAPK polyclonal antibody (Cell Signaling; 1:400) in Odyssey blocking buffer with gentle mixing for 2 h at room temperature. Cells were then washed four times with 1×PBS containing 0.1% Tween 20 (Sigma) for 5 min. Bound antibody was detected with fluorescence-labeled secondary antibody-Alexa Fluor® 680 (avoiding exposure to light; 1:200 in Odyssey Blocking Buffer, Molecular Probes, Inc., Eugene, Oreg.) for 1 h. After four washes with 1×PBS, 0.1% Tween 20, the plate was scanned, and the captured image of the signal was processed and quantified with the Odyssey™ Infrared Imaging System (Li-Cor Biosciences). For UV radiation to activate p38 MAPK, plates seeded with cells were placed in a UV source (UV Stratalinker 1800, Stratagene, La Jolla, Calif.) that was preset to deliver 4×10^4 μJ/cm^2 at room temperature.

[11] = biological target: T4, SERT in RBL-2H3 cells (Rattus norvegicus, UniProt P31652); assay: [125I]RTI-55 binding to intact RBL-2H3 cells; assay type: cell-based
T4 construct: As with rat SERT expressed by RBL-2H3 cells; host or cells: RBL-2H3 cells (intact cells, 4° C.)
From the text: Binding was terminated by two rapid washes with ice-cold PBS/CM.

[12] = pretreatment, then anisomycin 1 μm 10 min, SB compounds, curcumin, PD98059, ODQ 10 μm, H8 0.1 μm, DT-2 1.0 μm, fostriecin 5 nM, MTSET 10 mM, siRNA 100 nM 48 h

T3 sequence (P31652 whole entry): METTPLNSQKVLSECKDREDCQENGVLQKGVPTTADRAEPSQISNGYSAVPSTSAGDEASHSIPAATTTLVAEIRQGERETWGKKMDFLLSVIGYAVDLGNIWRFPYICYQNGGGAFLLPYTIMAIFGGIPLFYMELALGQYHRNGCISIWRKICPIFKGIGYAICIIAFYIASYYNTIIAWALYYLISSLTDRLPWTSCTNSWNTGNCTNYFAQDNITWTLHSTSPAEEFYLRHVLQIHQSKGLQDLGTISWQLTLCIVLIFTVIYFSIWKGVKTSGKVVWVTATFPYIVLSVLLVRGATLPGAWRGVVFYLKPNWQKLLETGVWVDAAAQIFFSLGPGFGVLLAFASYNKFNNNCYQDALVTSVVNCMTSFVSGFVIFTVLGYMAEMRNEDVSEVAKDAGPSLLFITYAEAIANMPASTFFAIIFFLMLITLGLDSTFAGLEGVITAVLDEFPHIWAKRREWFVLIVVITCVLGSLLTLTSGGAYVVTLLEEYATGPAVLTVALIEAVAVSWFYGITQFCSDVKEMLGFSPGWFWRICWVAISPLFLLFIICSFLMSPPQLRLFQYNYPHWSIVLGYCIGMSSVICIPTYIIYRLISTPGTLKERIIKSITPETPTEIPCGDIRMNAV
T4 sequence (P31652 whole entry): as above

## NCCc1c[nH]c2ccc(O)cc12 [5-HT, 5-hydroxytryptamine]
[1]
  5-HT Vmax: 190+/−28 % of hSERT
[1]; saturation kinetics
  5-HT Vmax: 789.5+28 fmol/well/min
[2]; saturation kinetics, hSERT
  5-HT Vmax: 416.2+19 fmol/well/min
[3]; read-out: SERT Km for 5-HT, RBL-2H3, vehicle
  Km: 1.06 ± 0.145 µM
[4]; read-out: SERT Km for 5-HT, vehicle
  Km: 0.799 ± 0.097 µM
[5]
  5-HT Vmax: 3.0+/−1.2 % of hSERT
[5]; saturation kinetics
  5-HT Vmax: 1.2 ± 0.11 fmol/well/min

## OO [H2O2, hydrogen peroxide]
[3]
  stimulation of 5-HT transport activity: stimulated 5-HT transport to a level comparable with 1 μm anisomycin

## CNCCNS(=O)(=O)c1cccc2cnccc12 [H8, N-[2-(methylamino)ethy]-5-isoquinoline sulfonamide]
[2]
  antagonism of 8BrcGMP stimulation of 5-HT transport: completely antagonized
[6]
  total [125I]RTI-55 binding: no effects on total binding
[3]; H8 0.1 μm, DT-2 1.0 μm
  blockade of NECA-induced 5-HT uptake: abolish
[3]; data not shown
  blockade of 8-Br-cGMP stimulation of SERT: blocked
[3]; [12]
  blockade of anisomycin-stimulated 5-HT uptake / SERT activity: failed to attenuate
[7]
  blockade of 8BrcGMP-induced reduction in surface density: completely blocked
[8]
  antagonist sensitivity of stimulated 5-HT transport: sensitive to H8
[4]
  blockade of anisomycin-stimulated 5-HT uptake: failed to attenuate

## O=C1C(Nc2ccccc2)=CC(=O)c2ncccc21 [LY83583]
[3]; [12]
  blockade of anisomycin-stimulated 5-HT uptake / SERT activity: neither agent attenuated anisomycin stimulation
[9]
  blockade of AR stimulation of SERT: completely abolished
[4]
  blockade of anisomycin-stimulated 5-HT uptake: neither agent attenuated anisomycin stimulation

## C[N+](C)(C)CCSS(C)(=O)=O [MTSET, [2-(Trimethylammonium)ethyl]methanethiosulfonate]
[3]
  blockade of anisomycin-stimulated 5-HT uptake / SERT activity: abolished

## CCNC(=O)[C@H]1O[C@@H](n2cnc3c(N)ncnc32)[C@H](O)[C@@H]1O [NECA]
[10]; 5 min treatment
  level of p38 MAPK phosphorylation stimulation: comparable to stimulation achieved with 8-bromo-cGMP
[10]; data not shown
  total p38 MAPK levels: No changes
[11]; acute treatment
  total SERT (paroxetine-displaceable [125I]RTI-55 binding): does not change
[11]; anisomycin 1 μm, fostriecin 5 nM, NECA 1 μm, 10 min
  SERT surface density (5-HT-displaceable [125I]RTI-55 binding): significant increase

## O=c1onc2cnc3ccccc3n12 [ODQ, 1H-(1,2,4)-oxadiazolo[4,3-a]quinoxalin-1-one]
[3]
  blockade of anisomycin-stimulated 5-HT uptake / SERT activity: neither agent attenuated anisomycin stimulation
[3]; H8 0.1 μm, DT-2 1.0 μm
  blockade of NECA-induced 5-HT uptake: abolish
[9]
  blockade of AR stimulation of SERT: completely abolished
[4]
  blockade of anisomycin-stimulated 5-HT uptake: neither agent attenuated anisomycin stimulation

## COc1cccc(-c2cc(=O)c3ccccc3o2)c1N [PD98059]
[3]
  blockade of anisomycin-stimulated 5-HT uptake / SERT activity: failed to block

## Oc1ccc(-c2nc(-c3ccc(F)cc3)c(-c3ccncc3)[nH]2)cc1 [SB202190]
[3]
  blockade of anisomycin-stimulated 5-HT uptake / SERT activity: blocked anisomycin stimulation of SERT
